How the values were obtained:
Assay type in all cases: cell-based
E. coli DH5α = assay: Antibacterial activity: MIC and growth curve against E. coli DH5α in 96-well plate; conditions: minimal inhibitory concentration against E. coli DH5α; 96-well plate, 5×10^5 CFU/mL, 37° C., judged after 8 h
Method in brief: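 Log-phase DH5α (OD600 about 0.5, 37° C, 185 rpm in LB) was pelleted, resuspended in fresh LB and seeded at 5×10^5 CFU/mL with recombinant protein at 50, 25 and 12.5 μg/mL (two-fold series), in triplicate. Plates were shaken at 175 rpm, 37° C, and OD600 was read every 30 min. MIC was the lowest concentration with no growth.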

E. coli BL21 = assay: MIC against Gram-negative bacteria: E. coli BL21; conditions: 5×10^5 CFU/mL; for MIC against E. coli BL21: 96-well plate, 37° C., 10 h; for MIC (μg/mL) E. coli BL21 / MIC E. coli BL21: 10 h cultivation at 37° C.; for MIC E. coli BL21: two-fold serial dilution
Method in brief: (§1)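 MIC, the lowest recombinant protein concentration giving no bacterial growth, found by two-fold serial dilution of human EGF-domain proteins in triplicate. Inoculum 5×10^5 CFU/mL in LB from cultures at McFarland 0.5; plates incubated at 37° C, 175 rpm shaking.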

Pseudomonas aeruginosa = assay: MIC against Gram-negative bacteria: Pseudomonas aeruginosa; conditions: 5×10^5 CFU/mL; for MIC against P. aeruginosa: Pseudomonas aeruginosa, 96-well plate, 37° C., 10 h; for MIC (μg/mL) P. aeruginosa / MIC P. aeruginosa: 10 h cultivation at 37° C.; for MIC P. aeruginosa: two-fold serial dilution
Method in brief: as §1

Klebsiella pneumonia = assay: MIC against Gram-negative bacteria: Klebsiella pneumonia; conditions: 5×10^5 CFU/mL; for MIC against K. pneumonia: Klebsiella pneumonia, 96-well plate, 37° C., 10 h; for MIC (μg/mL) K. pneumonia / MIC K. pneumonia: 10 h cultivation at 37° C.; for MIC K. pneumonia: two-fold serial dilution
Method in brief: as §1

Enterobacter cloacae = assay: MIC against Gram-negative bacteria: Enterobacter cloacae; conditions: 5×10^5 CFU/mL; for MIC against E. cloacae: Enterobacter cloacae, 96-well plate, 37° C., 10 h; for MIC (μg/mL) E. cloacae / MIC E. cloacae: 10 h cultivation at 37° C.; for MIC E. cloacae: two-fold serial dilution
Method in brief: as §1

Aeromonas hydrophila = assay: MIC against Gram-negative bacteria: Aeromonas hydrophila; conditions: 5×10^5 CFU/mL; for MIC against A. hydrophila: Aeromonas hydrophila, 96-well plate, 37° C., 10 h; for MIC (μg/mL) A. hydrophila / MIC A. hydrophila: 10 h cultivation at 37° C.; for MIC A. hydrophila: two-fold serial dilution
Method in brief: as §1

Citrobacter diversus = assay: MIC against Gram-negative bacteria: Citrobacter diversus; conditions: 5×10^5 CFU/mL; for MIC against C. diversus: Citrobacter diversus, 96-well plate, 37° C., 10 h; for MIC (μg/mL) C. diversus / MIC C. diversus: 10 h cultivation at 37° C.; for MIC C. diversus: two-fold serial dilution
Method in brief: as §1

Moraxella catarrhalis = assay: MIC against Gram-negative bacteria: Moraxella catarrhalis; conditions: 5×10^5 CFU/mL; for MIC against M. catarrhalis: Moraxella catarrhalis, 96-well plate, 37° C., 10 h; for MIC (μg/mL) M. catarrhalis / MIC M. catarrhalis: 10 h cultivation at 37° C.; for MIC M. catarrhalis: two-fold serial dilution
Method in brief: as §1

Proteus mirabilis = assay: MIC against Gram-negative bacteria: Proteus mirabilis; conditions: 5×10^5 CFU/mL; for MIC against P. mirabilis: Proteus mirabilis, 96-well plate, 37° C., 10 h; for MIC (μg/mL) P. mirabilis / MIC P. mirabilis: 10 h cultivation at 37° C.; for MIC P. mirabilis: two-fold serial dilution
Method in brief: as §1

Proteus vulgaris = assay: MIC against Gram-negative bacteria: Proteus vulgaris; conditions: 5×10^5 CFU/mL; for MIC against P. vulgaris: Proteus vulgaris, 96-well plate, 37° C., 10 h; for MIC (μg/mL) P. vulgaris / MIC P. vulgaris: 10 h cultivation at 37° C.; for MIC P. vulgaris: two-fold serial dilution
Method in brief: as §1

Serratia marcescens = assay: MIC against Gram-negative bacteria: Serratia marcescens; conditions: 5×10^5 CFU/mL; for MIC against S. marcescens: Serratia marcescens, 96-well plate, 37° C., 10 h; for MIC (μg/mL) S. marcescens / MIC S. marcescens: 10 h cultivation at 37° C.; for MIC S. marcescens: two-fold serial dilution
Method in brief: as §1

PRT1284 (LVDLCSPDLNPCQHEAQCVGTPDGPRCECMPGYAGDNCS; listed as Homo sapiens)
MIC (E. coli DH5α): 25 µg/mL
MIC against E. coli BL21 (E. coli BL21): 50 µg/mL
MIC against P. aeruginosa (Pseudomonas aeruginosa): 25 µg/mL
MIC against K. pneumonia (Klebsiella pneumonia): 12.5 µg/mL
MIC against E. cloacae (Enterobacter cloacae): 25 µg/mL
MIC against A. hydrophila (Aeromonas hydrophila): 12.5 µg/mL
MIC against C. diversus (Citrobacter diversus): 12.5 µg/mL
MIC against M. catarrhalis (Moraxella catarrhalis): 50 µg/mL
MIC against P. mirabilis (Proteus mirabilis): 12.5 µg/mL
MIC against P. vulgaris (Proteus vulgaris): 25 µg/mL
MIC against S. marcescens (Serratia marcescens): 12.5 µg/mL

PRT260 (CRAGNGGCHGLATCRAVGGGQRVCTCPPGFGGDGFSC; listed as Homo sapiens)
MIC (E. coli DH5α): 12.5 µg/mL
MIC (μg/mL) E. coli BL21 (E. coli BL21): 25 µg/mL
MIC (μg/mL) P. aeruginosa (Pseudomonas aeruginosa): 50 µg/mL
MIC (μg/mL) K. pneumonia (Klebsiella pneumonia): 25 µg/mL
MIC (μg/mL) E. cloacae (Enterobacter cloacae): 12.5 µg/mL
MIC (μg/mL) A. hydrophila (Aeromonas hydrophila): 25 µg/mL
MIC (μg/mL) C. diversus (Citrobacter diversus): 50 µg/mL
MIC (μg/mL) M. catarrhalis (Moraxella catarrhalis): 25 µg/mL
MIC (μg/mL) P. mirabilis (Proteus mirabilis): 12.5 µg/mL
MIC (μg/mL) P. vulgaris (Proteus vulgaris): 12.5 µg/mL
MIC (μg/mL) S. marcescens (Serratia marcescens): 12.5 µg/mL

PRT1314 (ARNPCTDGHRGGCSEHANCLSTGLNTRRCECHAGYVGDGLQCL; listed as Homo sapiens)
MIC (E. coli DH5α): 12.5 µg/mL
MIC against E. coli BL21 (E. coli BL21): 50 µg/mL
MIC against P. aeruginosa (Pseudomonas aeruginosa): 12.5 µg/mL
MIC against K. pneumonia (Klebsiella pneumonia): 50 µg/mL
MIC against E. cloacae (Enterobacter cloacae): 12.5 µg/mL
MIC against A. hydrophila (Aeromonas hydrophila): 50 µg/mL
MIC against C. diversus (Citrobacter diversus): 12.5 µg/mL
MIC against M. catarrhalis (Moraxella catarrhalis): 12.5 µg/mL
MIC against P. mirabilis (Proteus mirabilis): 12.5 µg/mL
MIC against P. vulgaris (Proteus vulgaris): 12.5 µg/mL
MIC against S. marcescens (Serratia marcescens): 12.5 µg/mL

PRT793 (YGEACQQICSCQNGADCDSVTGKCTCAPGFKGIDCS; listed as Homo sapiens)
MIC (E. coli DH5α): 25 µg/mL
MIC (μg/mL) E. coli BL21 (E. coli BL21): 12.5 µg/mL
MIC (μg/mL) P. aeruginosa (Pseudomonas aeruginosa): 50 µg/mL
MIC (μg/mL) K. pneumonia (Klebsiella pneumonia): 12.5 µg/mL
MIC (μg/mL) E. cloacae (Enterobacter cloacae): 25 µg/mL
MIC (μg/mL) A. hydrophila (Aeromonas hydrophila): 50 µg/mL
MIC (μg/mL) C. diversus (Citrobacter diversus): 25 µg/mL
MIC (μg/mL) M. catarrhalis (Moraxella catarrhalis): 12.5 µg/mL
MIC (μg/mL) P. mirabilis (Proteus mirabilis): 25 µg/mL
MIC (μg/mL) P. vulgaris (Proteus vulgaris): 50 µg/mL
MIC (μg/mL) S. marcescens (Serratia marcescens): 12.5 µg/mL

PRT1266 (CMNKDHGCSHICKEAPRGSVACECRPGFELAKNQRDC; listed as Homo sapiens)
MIC (E. coli DH5α): 50 µg/mL
MIC against E. coli BL21 (E. coli BL21): 12.5 µg/mL
MIC against P. aeruginosa (Pseudomonas aeruginosa): 25 µg/mL
MIC against K. pneumonia (Klebsiella pneumonia): 50 µg/mL
MIC against E. cloacae (Enterobacter cloacae): 25 µg/mL
MIC against A. hydrophila (Aeromonas hydrophila): 25 µg/mL
MIC against C. diversus (Citrobacter diversus): 12.5 µg/mL
MIC against M. catarrhalis (Moraxella catarrhalis): 25 µg/mL
MIC against P. mirabilis (Proteus mirabilis): 50 µg/mL
MIC against P. vulgaris (Proteus vulgaris): 12.5 µg/mL
MIC against S. marcescens (Serratia marcescens): 50 µg/mL

PRT1154 (DGTACGYNTCRNGGECTVNGTTFSCRCLPDWAGNTCN; listed as Homo sapiens)
MIC (E. coli DH5α): 50 µg/mL
MIC E. coli BL21 (E. coli BL21): 12.5 µg/mL
MIC P. aeruginosa (Pseudomonas aeruginosa): 50 µg/mL
MIC K. pneumonia (Klebsiella pneumonia): 12.5 µg/mL
MIC E. cloacae (Enterobacter cloacae): 25 µg/mL
MIC A. hydrophila (Aeromonas hydrophila): 100 µg/mL
MIC C. diversus (Citrobacter diversus): 12.5 µg/mL
MIC M. catarrhalis (Moraxella catarrhalis): 12.5 µg/mL
MIC P. mirabilis (Proteus mirabilis): 12.5 µg/mL
MIC P. vulgaris (Proteus vulgaris): 12.5 µg/mL
MIC S. marcescens (Serratia marcescens): 12.5 µg/mL

PRT1140 (DVKDCLFLSCQDYGDCEDMVNNFRCICRPGFSGSLCE; listed as Homo sapiens)
MIC (E. coli DH5α): 25 µg/mL
MIC E. coli BL21 (E. coli BL21): 50 µg/mL
MIC P. aeruginosa (Pseudomonas aeruginosa): 12.5 µg/mL
MIC K. pneumonia (Klebsiella pneumonia): 50 µg/mL
MIC E. cloacae (Enterobacter cloacae): 12.5 µg/mL
MIC A. hydrophila (Aeromonas hydrophila): 50 µg/mL
MIC C. diversus (Citrobacter diversus): 12.5 µg/mL
MIC M. catarrhalis (Moraxella catarrhalis): 50 µg/mL
MIC P. mirabilis (Proteus mirabilis): 12.5 µg/mL
MIC P. vulgaris (Proteus vulgaris): 50 µg/mL
MIC S. marcescens (Serratia marcescens): 100 µg/mL
